Measured values reported in PubChem BioAssay AID743237 (The Scripps Research Institute Molecular Screening Center, 2013).
Activity calls are given as the source filed them. How the calls were made is not given here.

The molecules below were run on Galpha16-expressing cells, calcium fluorescence, counterscreen (assay: nonselective Ga16 antagonists, potency, late-stage follow-up, counter-screen for TAAR1 antagonist project, cell-based, fluorescence, dose response (AID 743237)).
With `Cc1cccc(C(C#N)c2nc3ccccc3nc2C(F)(F)F)c1` (centres undefined) the IC50 was > 29.9 µM (inactive).
`CCOC(=O)C1CCCN(c2c(C(=O)c3ccccc3)cnc3ccc(OC)cc23)C1` (centres undefined) was tested, and the IC50 was > 29.9 µM (inactive).
`COc1cc(NC(=O)c2cc3ccccc3o2)c(OC)cc1Cl` was tested, and the IC50 was > 29.9 µM (inactive).
With `CC(=O)c1ccc(NC(=O)c2ccc(COc3ccccc3[N+](=O)[O-])o2)cc1` the IC50 was > 29.9 µM (inactive).
With `O=C(NCCn1cc(SCc2ccccc2F)c2ccccc21)c1c(F)cccc1F` the IC50 was > 29.9 µM (inactive).
In the case of `Cc1ccc(CSCC(=O)Nc2cc(S(=O)(=O)N3CCOCC3)ccc2OCC(F)(F)F)cc1`, the IC50 is reported as > 29.9 µM (inactive).
`Cc1coc(NC(=O)CSc2nc(-c3ccc(Cl)cc3)cc(C(F)(F)F)c2C#N)n1` was tested, and the IC50 was > 29.9 µM (inactive).
For `COc1cccc(-c2nn(-c3ccccc3)cc2C(=O)Nc2nccs2)c1`, the IC50 was > 29.9 µM (inactive).
With `CCCCC(=O)Nc1ccc(C(=O)Nc2ccc(S(=O)(=O)N3CCCC3)cc2)cc1` the IC50 was > 29.9 µM (inactive).
